In the supplement of paper PMC10627819:

Assays:
S. aureus DSM 20231 = assay: Bliss interaction score (quartile over a dose matrix) (fitness difference); higher = more antagonism (negative = synergy)
Procedure, shortened: (§1)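 Each OD595 reading at entry into stationary phase was scaled to the robust mean of the untreated wells on its plate, with a ceiling of 1. These ratios define fitness, and single-drug fitness was inferred from combinations. The Bliss score compares observed fitness with the product-based expectation and is reported as quartiles across all replicate types, technical, biological and donor/recipient.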

S. aureus Newman = assay: as above
Procedure, shortened: as §1

S. pneumoniae D39V = assay: as above
Procedure, shortened: as §1

B. subtilis 168 [1] = assay: as above
Procedure, shortened: as §1

B. subtilis 168 [2] = assay: fitness (endpoint OD595 vs no drug) (fraction); higher = more growth
Procedure, shortened: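 Plates with 384 wells were inoculated at OD595 0.01 using 30 µl of TSB, LB Lennox or CY, or 55 µl for S. pneumoniae. Incubation was at 37 °C, with OD595 measured every 30 min for 14 h. Fitness is the stationary-phase transition optical density over the robust mean of no-drug control wells, after first-reading background subtraction; it is capped at 1.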
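For Bliss interaction score (quartile over a dose matrix) in this document: first quartile when negative (synergy) and third quartile when positive (antagonism).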

CO[C@@H]1[C@@H](OC(N)=O)[C@@H](O)[C@H](Oc2ccc3c(O)c(NC(=O)c4ccc(O)c(CC=C(C)C)c4)c(=O)oc3c2C)OC1(C)C [Novobiocin] + Cc1cc(NS(=O)(=O)c2ccc(N)cc2)no1 [Sulfamethoxazol]
Details | Bliss interaction score
B. subtilis 168 [1] | 0.0447
S. aureus DSM 20231 | 0.0483
S. aureus Newman | 0.041
S. pneumoniae D39V | -0.0959

fitness, B. subtilis 168 [2]
Details | first compound 0.0125 µg/mL | first compound 0.025 µg/mL | first compound 0.05 µg/mL
partner 1 µg/mL | 0.932 | 0.959 | 0.951
partner 2 µg/mL | 0.968 | 0.955 | 0.876
partner 4 µg/mL | 0.966 | 0.989 | 0.92

fitness, B. subtilis 168 [2], one replicate
Details | first compound 0.05 µg/mL | first compound 0.1 µg/mL | first compound 0.125 µg/mL | first compound 0.2 µg/mL | first compound 0.25 µg/mL | first compound 0.5 µg/mL
partner 0.5 µg/mL | 0.972 | ≥ 1 | – | ≥ 1 | – | –
partner 1 µg/mL | – | 0.864 | 0.999 | 0.81 | 0.897 | 0.49
partner 2 µg/mL | – | 0.814 | 0.927 | 0.885 | 0.838 | 0.507
partner 4 µg/mL | – | – | ≥ 1 | – | 0.909 | 0.482

CO[C@@H]1[C@@H](OC(N)=O)[C@@H](O)[C@H](Oc2ccc3c(O)c(NC(=O)c4ccc(O)c(CC=C(C)C)c4)c(=O)oc3c2C)OC1(C)C [Novobiocin] + Cc1onc(-c2ccccc2)c1C(=O)N[C@@H]1C(=O)N2[C@@H]1SC(C)(C)[C@@H]2C(=O)O [Oxacillin]
Details | Bliss interaction score
B. subtilis 168 [1] | 0.0603
S. aureus DSM 20231 | 0.0609
S. aureus Newman | -0.0672
S. pneumoniae D39V | -0.0758

fitness, B. subtilis 168 [2]
Details | first compound 0.0125 µg/mL | first compound 0.025 µg/mL | first compound 0.05 µg/mL
partner 0.002 µg/mL | 0.988 | 0.974 | ≥ 1
partner 0.004 µg/mL | 0.949 | 0.926 | ≥ 1
partner 0.008 µg/mL | 0.946 | 0.895 | ≥ 1

fitness, B. subtilis 168 [2], one replicate
Details | first compound 0.05 µg/mL | first compound 0.1 µg/mL | first compound 0.125 µg/mL | first compound 0.2 µg/mL | first compound 0.25 µg/mL | first compound 0.5 µg/mL
partner 0.0078 µg/mL | – | – | 0.997 | – | 0.968 | 0.547
partner 0.0155 µg/mL | – | – | 0.952 | – | 0.948 | 0.498
partner 0.031 µg/mL | – | – | 0.848 | – | 0.798 | 0.289
partner 0.075 µg/mL | 0.673 | 0.672 | – | 0.734 | – | –
partner 0.15 µg/mL | 0.0266 | 0.0276 | – | 0.0165 | – | –
partner 0.3 µg/mL | 0.0465 | 0.036 | – | 0.0154 | – | –
